“Also recorded” adds a separate entry of the source.
Experiments:
[1] = system: ApoE-deficient mice; test: Serum analyses (cholesterol, triglycerides, bile acids, IL-6, haptoglobin, glucose, LPS); format: in vivo, mouse
Source text: (§1) Four cohorts of mice were used in these studies (FIGS. 8A and 9A). Cohorts 1 and 2 were devoted to the in vivo and ex vivo characterization of TNAP-associated plaque calcification. 6-week-old ApoE-deficient male mice were received at the animal facility and placed in conventional cages with 5 mice per cage. Mice were maintained on a 12-hrs light-dark cycle (7:00 am-7:00 pm) and were supplied with food and water ad libitum. From 10 weeks of age, they were fed ad libitum with a high fat diet (HFD, D12108C, Research Diets, New Brunswick, USA) containing 40% fat (kcal) and 1.25% cholesterol (weight). In cohort 1, 8 mice were sacrificed every 2 weeks between weeks 17 to 31, for histological and molecular analyses. Total body weight was measured weekly after starting the HFD. The sacrifice was done after anesthesia with isoflurane and intracardiac blood puncture by CO2 inhalation. Tissues were harvested as described below. The abdominal aorta was used for quantitative polymerase chain reaction (PCR) analyses. Mice from cohort 2 were used to analyze aorta calcification with ^18F—NaF μPET and μCT and to compare the in vivo data with the ex vivo results obtained in cohort 1. Animals were transferred from the animal facility to the Cermep imaging platform. Cohorts 3 and 4 were used to determine in vivo and ex vivo the impact of TNAP inhibition on the vasculature, liver, bones, and kidneys. According to the results obtained in cohorts 1 and 2, TNAP inhibitor SBI-425 (30 mg/kg/day, formulated as a food admixture in the HFD) was administered in a preventive manner from 10 weeks of age. Treatment was stopped at 25 weeks or 31 weeks of age. Plaque calcification was analyzed at 25 weeks, and possible side effects of TNAP inhibition were explored in mice aged 31 weeks. Mice in cohort 3 (2 groups of 13 mice) were used for ex vivo analysis, and mice in cohort 4 (2 groups of 12 mice) for in vivo imaging and ex vivo analyses.
After overnight fasting, blood was collected from mice by cardiac puncture under anesthesia with isoflurane. Serum was obtained through centrifugation of the blood for 15 min at 1,500 g at 4° C. and stored at −80° C. before analysis. Concentration of total cholesterol and triglycerides were measured using a colorimetric (MAK043, Sigma) and a fluorimetric assay (MAK266, Sigma), respectively. Total bile acids were assayed with a commercial enzyme-based colorimetric kit (Abcam Ab239702). Serum IL-6 and haptoglobin levels were determined using the commercially available ELISA kits (Fischer Scientific 10110623 and Abcam 157714, respectively). The alkaline phosphatase activity assay was performed in a 96-well plate. Briefly, sera were mixed with a concentrated buffer at a ratio of 2.85:1 (vol/vol) in order to get final concentration of 0.56 M 2-amino-2-methyl-1-propanol buffer pH 10.5, 1 mM MgCl2 and 10 mM p-nitrophenylphosphate. Absorbance was acquired for 5 min at 405 nm (Tecan plate reader). The slope was calculated to determine TNAP activity levels in each sample and normalized to protein amounts measured with the BCA protein assay (Pierce).

[2] = system: ApoE-deficient mice; test: Plaque histology: osteosense staining of calcifications, oil red O staining; format: in vivo, mouse; conditions: ApoE-deficient mice on HFD, 30 mg/kg/day from 10 to 25 weeks
Source text: as §1
After euthanasia, the heart and vasculature were perfused with sterile NaCl 0.9%. The aortic root and the aortic arch, with the major arteries that stem from them (brachiocephalic, left common carotid and left subclavian), were dissected and frozen in optimal cutting temperature medium (OCT, Thermo Scientific) and stored at −80° C. before serial cryo-sectioning. The aortic root, aortic arch and carotid were dissected under a microscope, frozen in optimal cutting medium (OCT, Thermo Scientific) and stored at −80° C. before serial cryo-sectioning. […] Calcification was imaged by near infrared fluorescence (NIRF) with the calcium tracer osteosense (OS) (PerkinElmer, ex/em 650/680 nm). […] Quantification was performed by computer image analysis using Image J software (NIH, Bethesda, Md.) by averaging of measurements from 2 sections of 15 μm apart using ImageJ software. […]

[3] = ApoE-deficient mice, 30 mg/kg/day, 25 weeks, fasting, vs control
[4] = ApoE-deficient mice, 30 mg/kg/day, 25 weeks, vs control

COc1ccc(Cl)cc1S(=O)(=O)Nc1cncc(C(N)=O)c1 [SBI-425]
serum levels of cholesterol [1, 3]: significantly decreased | serum levels of triglycerides (TGs) [1, 3]: significantly decreased | fasting glycemia [1, 4]: did not modulate | serum IL-6 levels [1, 4]: reduced serum IL-6 levels, although not significantly | serum bile acids levels [1, 4]: did not change | serum haptoglobin levels [1, 4]: nor changed | systemic inflammation ([1]; mouse experiments, administration for several months): did not significantly change | mice that formed calcifications, by histology ([2]; OS staining, control 13 out of 13): 9 out of 13 | number of calcifications per mice ([2]; OS staining, vs control): lower | plaque lipids (lipid surface) ([2]; oil red O, vs control): less lipids | plaque size (plaque surface) ([2]; oil red O, vs control, 30 mg/kg/day): smaller; also recorded: reduced

From patent publication US20230149374A1, “METHODS AND COMPOSITIONS FOR TREATING ATHEROSCLEROSIS” (Sanford Burnham Prebys Medical Discovery Institute, priority 2021, published 2023)
